Laboratory results reported in US20230204598A1, “MAM-SPECIFIC FLUORESCENCE MARKER AND USE THEREOF” (POSTECH ACADEMY-INDUSTRY FOUNDATION, priority 2016, published 2023).

System: MAM structure in HEK293 cells
Test: Verification of MAM specificity of the fluorescent marker using a drug (MAM suppressor)
Format: cell-based
Conditions: HEK293 cells transfected with the MAM-specific bimolecular fluorescent marker; 150 μM added to the cell culture solution; incubated for 3 or 24 hours; fluorescence microscope (FIG. 7)
Experimental: HEK293 cells transfected in Example 4-1 were incubated in DMEM containing a 10% fetal bovine serum (FBS) for 24 hours under conditions of 37° C. and 5% CO2. Afterward, the culture solution was washed with PBS, and then cells were fixed by treatment with a 4% para-formaldehyde cell fixing solution for 10 minutes. The cell fixing solution was sufficiently washed with PBS, and a cover glass was immobilized on a slide glass using a mounting solution, thereby manufacturing a microscope sample. […]
The MAM-specific bimolecular fluorescent marker was transfected into HEK293 cells in the same manner as in Example 5-1, 150 μM of methyl-β-cyclodextrin known as a MAM suppressor was added to the cell culture solution, and the cells were incubated for 3 or 24 hours under cell culture conditions, thereby manufacturing a microscope sample, and then the microscope sample was observed using a fluorescence microscope.

methyl-β-cyclodextrin
fluorescence level of the MAM-specific fluorescent marker: significantly reduced
